PubChem BioAssay AID180 (DTP/NCI, 2004)
Where “and” joins values, the source holds several entries; their conditions need not be identical. Equal entries are not always repeated.

Test system: BDF1 mice, Adenocarcinoma 755 s.c., tumor weight T/C
Test: NCI In Vivo Anticancer Drug Screen. Data for tumor model Adenocarcinoma 755 (subcutaneous) in B6D2F1 (BDF1) mice
Settings: endpoint: mean tumor weight, higher = larger tumour
Method in brief: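 Compound activity was tested in mice carrying transplanted tumors. Survival or tumor size was measured, and each value is the treated-group measurement divided by that of the vehicle-treated control group (T/C).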

[1] = dose: 30.0 mg/kg/injection, schedule: Q01DX011 (ip), vehicle: carboxymethylcellulose (CMC)
[2] = dose: 60.0 mg/kg/injection, schedule: Q01DX011 (ip), vehicle: carboxymethylcellulose (CMC)

**Q.** Which results are given for Nc1nc(=S)c2[nH]cnc2[nH]1?
**A.** T/C (dose: 0.01 mg/kg/injection, schedule: Q01DX011 (ip), vehicle: saline): 113 % of control; T/C (dose: 0.03 mg/kg/injection, schedule: Q01DX011 (ip), vehicle: saline): 81 % of control; T/C (dose: 0.06 mg/kg/injection, schedule: Q01DX011 (ip), vehicle: saline): 88 % of control; T/C (dose: 0.07 mg/kg/injection, schedule: Q01DX011 (ip), vehicle: alkali diluted with saline): 74 % of control; T/C (dose: 0.07 mg/kg/injection, schedule: Q01DX011 (ip), vehicle: methylcellulose (MC)): 28 % of control; T/C (dose: 0.12 mg/kg/injection, schedule: Q01DX011 (ip), vehicle: carboxymethylcellulose (CMC)): 112 % of control; T/C (dose: 0.12 mg/kg/injection, schedule: Q01DX011 (ip), vehicle: saline): 66 % of control; T/C (dose: 0.13 mg/kg/injection, schedule: Q01DX011 (ip), vehicle: alkali diluted with saline): 95 % of control; T/C (dose: 0.13 mg/kg/injection, schedule: Q01DX011 (ip), vehicle: other): 91 % of control; T/C (dose: 0.13 mg/kg/injection, schedule: Q01DX011 (ip), vehicle: saline): 7 % of control; T/C (dose: 0.18 mg/kg/injection, schedule: Q01DX011 (ip), vehicle: carboxymethylcellulose (CMC)): 32 % of control; T/C (dose: 0.2 mg/kg/injection, schedule: Q01DX011 (ip), vehicle: methylcellulose (MC)): 39 % of control; T/C (dose: 0.24 mg/kg/injection, schedule: Q01DX011 (ip), vehicle: carboxymethylcellulose (CMC)): 77 % of control; T/C (dose: 0.25 mg/kg/injection, schedule: Q01DX011 (ip), vehicle: alkali diluted with saline): 53 % of control; T/C (dose: 0.25 mg/kg/injection, schedule: Q01DX011 (ip), vehicle: distilled water + alcohol): 7 % of control; T/C (dose: 0.25 mg/kg/injection, schedule: Q01DX011 (ip), vehicle: methylcellulose (MC)): 4 % of control and 11 % of control and 15 % of control; T/C (dose: 0.25 mg/kg/injection, schedule: Q01DX011 (ip), vehicle: other): 32 % of control; T/C (dose: 0.35 mg/kg/injection, schedule: Q01DX011 (ip), vehicle: carboxymethylcellulose (CMC)): 9 % of control; T/C (dose: 0.4 mg/kg/injection, schedule: Q01DX011 (ip), vehicle: methylcellulose (MC)): 12 % of control; T/C (dose: 0.47 mg/kg/injection, schedule: Q01DX011 (ip), vehicle: carboxymethylcellulose (CMC)): 34 % of control; T/C (dose: 0.5 mg/kg/injection, schedule: Q01DX011 (ip), vehicle: alkali diluted with saline): 4 % of control; T/C (dose: 0.5 mg/kg/injection, schedule: Q01DX011 (ip), vehicle: distilled water + alcohol): 7 % of control; T/C (dose: 0.5 mg/kg/injection, schedule: Q01DX011 (ip), vehicle: other): 8 % of control; T/C (dose: 0.5 mg/kg/injection, schedule: Q01DX011 (ip), vehicle: saline): 8 % of control; T/C (dose: 0.7 mg/kg/injection, schedule: Q01DX011 (ip), vehicle: carboxymethylcellulose (CMC)): 7 % of control; T/C (dose: 0.94 mg/kg/injection, schedule: Q01DX011 (ip), vehicle: carboxymethylcellulose (CMC)): 30 % of control; T/C (dose: 1.0 mg/kg/injection, schedule: Q01DX011 (ip), vehicle: alkali diluted with saline): 1 % of control; T/C (dose: 1.0 mg/kg/injection, schedule: Q01DX011 (ip), vehicle: carboxymethylcellulose (CMC)): 1 % of control and 2 % of control; T/C (dose: 1.0 mg/kg/injection, schedule: Q01DX011 (ip), vehicle: distilled water + alcohol): 2 % of control; T/C (dose: 1.0 mg/kg/injection, schedule: Q01DX011 (ip), vehicle: other): 3 % of control; T/C (dose: 1.0 mg/kg/injection, schedule: Q01DX011 (ip), vehicle: saline): 2 % of control and 8 % of control; T/C (dose: 1.4 mg/kg/injection, schedule: Q01DX011 (ip), vehicle: carboxymethylcellulose (CMC)): 5 % of control; T/C (dose: 1.5 mg/kg/injection, schedule: Q01DX011 (ip), vehicle: methylcellulose (MC)): 4 % of control; T/C (dose: 2.0 mg/kg/injection, schedule: Q01DX011 (ip), vehicle: alkali diluted with saline): 1 % of control; T/C (dose: 2.0 mg/kg/injection, schedule: Q01DX011 (ip), vehicle: carboxymethylcellulose (CMC)): 1 % of control; T/C (dose: 2.0 mg/kg/injection, schedule: Q01DX011 (ip), vehicle: other): 2 % of control; T/C (dose: 2.0 mg/kg/injection, schedule: Q01DX011 (ip), vehicle: saline): 3 % of control and 7 % of control; T/C (dose: 3.0 mg/kg/injection, schedule: Q01DX011 (ip), vehicle: methylcellulose (MC)): 3 % of control; T/C (dose: 4.0 mg/kg/injection, schedule: Q01DX011 (ip), vehicle: carboxymethylcellulose (CMC)): 1 % of control; T/C (dose: 4.0 mg/kg/injection, schedule: Q01DX011 (ip), vehicle: methylcellulose (MC)): 3 % of control; T/C (dose: 4.0 mg/kg/injection, schedule: Q01DX011 (ip), vehicle: other): 1 % of control; T/C (dose: 46.0 micrograms/kg/injection, schedule: Q01DX011 (ip), vehicle: carboxymethylcellulose (CMC)): 72 % of control; T/C (dose: 49.0 micrograms/kg/injection, schedule: Q01DX011 (ip), vehicle: carboxymethylcellulose (CMC)): 118 % of control; T/C (dose: 58.0 micrograms/kg/injection, schedule: Q01DX011 (ip), vehicle: carboxymethylcellulose (CMC)): 91 % of control; T/C (dose: 62.0 micrograms/kg/injection, schedule: Q01DX011 (ip), vehicle: carboxymethylcellulose (CMC)): 77 % of control; T/C (dose: 77.0 micrograms/kg/injection, schedule: Q01DX011 (ip), vehicle: carboxymethylcellulose (CMC)): 54 % of control; T/C (dose: 82.0 micrograms/kg/injection, schedule: Q01DX011 (ip), vehicle: carboxymethylcellulose (CMC)): 69 % of control; T/C (dose: 90.0 micrograms/kg/injection, schedule: Q01DX011 (ip), vehicle: methylcellulose (MC)): 32 % of control; T/C (dose: 93.0 micrograms/kg/injection, schedule: Q01DX011 (ip), vehicle: carboxymethylcellulose (CMC)): 28 % of control; T/C (dose: 116.0 micrograms/kg/injection, schedule: Q01DX011 (ip), vehicle: carboxymethylcellulose (CMC)): 12 % of control and 36 % of control; T/C (dose: 140.0 micrograms/kg/injection, schedule: Q01DX011 (ip), vehicle: carboxymethylcellulose (CMC)): 11 % of control; T/C (dose: 155.0 micrograms/kg/injection, schedule: Q01DX011 (ip), vehicle: carboxymethylcellulose (CMC)): 6 % of control; T/C (dose: 175.0 micrograms/kg/injection, schedule: Q01DX011 (ip), vehicle: carboxymethylcellulose (CMC)): 4 % of control; T/C (dose: 187.0 micrograms/kg/injection, schedule: Q01DX011 (ip), vehicle: methylcellulose (MC)): 11 % of control; T/C (dose: 232.0 micrograms/kg/injection, schedule: Q01DX011 (ip), vehicle: carboxymethylcellulose (CMC)): 13 % of control; T/C (dose: 233.0 micrograms/kg/injection, schedule: Q01DX011 (ip), vehicle: carboxymethylcellulose (CMC)): 2 % of control and 5 % of control; T/C (dose: 350.0 micrograms/kg/injection, schedule: Q01DX011 (ip), vehicle: carboxymethylcellulose (CMC)): 3 % of control and 4 % of control; T/C (dose: 375.0 micrograms/kg/injection, schedule: Q01DX011 (ip), vehicle: methylcellulose (MC)): 9 % of control; T/C (dose: 490.0 micrograms/kg/injection, schedule: Q01DX011 (ip), vehicle: carboxymethylcellulose (CMC)): 5 % of control; T/C (dose: 750.0 micrograms/kg/injection, schedule: Q01DX011 (ip), vehicle: methylcellulose (MC)): 4 % of control; T/C (dose: 980.0 micrograms/kg/injection, schedule: Q01DX011 (ip), vehicle: carboxymethylcellulose (CMC)): 4 % of control; T/C (dose: 1500.0 micrograms/kg/injection, schedule: Q01DX011 (ip), vehicle: methylcellulose (MC)): 3 % of control; T/C (dose: 3000.0 micrograms/kg/injection, schedule: Q01DX011 (ip), vehicle: methylcellulose (MC)): 4 % of control

**Q.** Which results are given for Nc1nc2c(nc(Br)n2C2OC(CO)C(O)C2O)c(=O)[nH]1 (stereo unspecified)?
**A.** T/C [1]: 82 % of control; T/C [2]: 43 % of control; T/C (dose: 120.0 mg/kg/injection, schedule: Q01DX011 (ip), vehicle: carboxymethylcellulose (CMC)): 17 % of control

**Q.** Which results are given for CSc1nc(Cl)cc2nc(Cl)cn12?
**A.** T/C [1]: 110 % of control; T/C [2]: 111 % of control

**Q.** Clc1nc(Cl)c2ncn(C3CCCO3)c2n1 (stereo unspecified) was tested. Which T/C (dose: 33.0 mg/kg/injection, schedule: Q01DX011 (ip), vehicle: methylcellulose (MC)) did it give?
**A.** 65 % of control

**Q.** For CC(=O)OCC(=O)[C@@]1(O)CC[C@H]2[C@@H]3CCC4=CC(=O)[C@H](C)C[C@]4(C)[C@@]3(F)[C@@H](O)C[C@@]21C, which T/C (dose: 3.75 mg/kg/injection, schedule: Q01DX011 (sc), vehicle: steriod suspending solution) is on record?
**A.** 65 % of control

**Q.** What about the T/C (dose: 7.5 mg/kg/injection, schedule: Q01DX011 (sc), vehicle: steriod suspending solution) of the same compound?
**A.** 29 % of control

**Q.** And the T/C (dose: 15.0 mg/kg/injection, schedule: Q01DX011 (sc), vehicle: steriod suspending solution)?
**A.** 20 % of control

**Q.** What about the T/C (dose: 30.0 mg/kg/injection, schedule: Q01DX011 (sc), vehicle: steriod suspending solution) of the same compound?
**A.** 9 % of control

**Q.** With CCC(C)Cn1cnc2c(SCc3ccccc3F)nc(N)nc21 (stereo unspecified) as the compound, how does the T/C (dose: 20.0 mg/kg/injection, schedule: Q01DX011 (ip), vehicle: methylcellulose (MC)) read?
**A.** 64 % of control

**Q.** And the T/C (dose: 65.0 mg/kg/injection, schedule: Q01DX011 (ip), vehicle: methylcellulose (MC))?
**A.** 76 % of control

**Q.** And the T/C (dose: 200.0 mg/kg/injection, schedule: Q01DX011 (ip), vehicle: methylcellulose (MC))?
**A.** 30 % of control
